This note sets out measurements from PubChem BioAssay (NCI).

Among the test systems are HL-60(TB) leukemia; COLO 205 colon; KM12 colon; SNB-19 CNS; HCT-15 colon; NCI/ADR-RES ovarian; SN12C renal; NCI-H460 lung; HOP-92 NSCLC; SK-OV-3 ovarian.
Test in all cases: NCI tumour cell line growth inhibition, 48 h

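Tested at 5 concentrations; 48 h exposure; 96-well plates; endpoints linearly interpolated, else capped at highest concentration. GI50 is the concentration that inhibits growth by half. Definition used: TGI = concentration required for complete inhibition of growth.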

`Nc1nc(Cl)nc2c1ncn2C1CC(O)C(CO)O1` (stereo not given): the TGI was 1.02 µM with HL-60(TB) leukemia; above 100 µM in the test on COLO 205 colon; above 100 µM in the test with KM12 colon; above 100 µM in the test with SNB-19 CNS; above 100 µM with HCT-15 colon; above 100 µM with NCI/ADR-RES ovarian. In addition, the TGI was above 100 µM with SN12C renal, above 100 µM with NCI-H460 lung, 24.2 µM in the test with HOP-92 NSCLC and above 100 µM in the test on SK-OV-3 ovarian.
As to `Cc1cccc(NC2=C(Cl)C(=O)c3nc(C)ccc3C2=O)c1`, the GI50 was 2.14 µM in the test with HL-60(TB) leukemia; 1.86 µM in the test on COLO 205 colon; 2.67 µM in the test with KM12 colon; 1.29 µM in the test with SNB-19 CNS; 0.431 µM in the test on HCT-15 colon; 1.58 µM in the test on NCI/ADR-RES ovarian. The GI50 in the test with SN12C renal is 1.17 µM; in the test on NCI-H460 lung, 1.64 µM; in the test on HOP-92 NSCLC it was 1.66 µM; in the test on SK-OV-3 ovarian, 11.7 µM. Moreover, the TGI with HL-60(TB) leukemia worked out at 5.8 µM; with COLO 205 colon, 4.1 µM; in the test on KM12 colon it was 10.8 µM; in the test on SNB-19 CNS, 10.3 µM; in the test on HCT-15 colon it was 2.09 µM; in the test with NCI/ADR-RES ovarian, 4.14 µM. For the same compound, the TGI with SN12C renal is 2.5 µM; with NCI-H460 lung, 3.82 µM; in the test with HOP-92 NSCLC, 3.27 µM; in the test on SK-OV-3 ovarian, 24.2 µM.
As for `CN(C)CCN1CCC(Cc2ccccc2)CC1`, the GI50 was 26.8 µM with HL-60(TB) leukemia; above 80 µM in the test with COLO 205 colon; above 80 µM with KM12 colon; above 80 µM in the test on SNB-19 CNS; above 80 µM with HCT-15 colon; above 80 µM with NCI/ADR-RES ovarian. The GI50 with SN12C renal was above 80 µM; with NCI-H460 lung it was above 80 µM; in the test with HOP-92 NSCLC, 41.4 µM; with SK-OV-3 ovarian it was above 80 µM. Also, the TGI in the test with HL-60(TB) leukemia, in the test with COLO 205 colon, in the test with KM12 colon, in the test on SNB-19 CNS, in the test with HCT-15 colon and with NCI/ADR-RES ovarian was above 80 µM throughout. The TGI with SN12C renal, in the test with NCI-H460 lung, with HOP-92 NSCLC and in the test on SK-OV-3 ovarian was above 80 µM each time.
Turning to `CCCCCCCCSC1=C(Cl)C(=O)C(OC)=C(OC)C1=O`, the TGI in the test on HL-60(TB) leukemia was 16.8 µM; in the test on COLO 205 colon, 38 µM; in the test on KM12 colon it was 37.7 µM; in the test on SNB-19 CNS it was 24.3 µM; in the test with HCT-15 colon, 72.5 µM; in the test on NCI/ADR-RES ovarian, above 100 µM. For the same compound, the TGI with SN12C renal was 18.4 µM; in the test on NCI-H460 lung, 69.5 µM; with HOP-92 NSCLC, 35.1 µM; in the test with SK-OV-3 ovarian it was above 100 µM.
For `CCN(Cc1c(F)cccc1OC)c1ccc(CO)c(Cl)c1`, the GI50 was 13.2 µM with HL-60(TB) leukemia; 0.684 µM in the test on COLO 205 colon; 15.9 µM in the test on KM12 colon; 24.2 µM in the test on SNB-19 CNS; 12.8 µM with HCT-15 colon; 13.3 µM with NCI/ADR-RES ovarian. Moreover, the GI50 in the test on SN12C renal is 12.8 µM; in the test with NCI-H460 lung it was 0.201 µM; in the test on HOP-92 NSCLC, 0.933 µM; in the test on SK-OV-3 ovarian, 3.65 µM. The TGI in the test on HL-60(TB) leukemia is 43.3 µM; in the test on COLO 205 colon it was 7.43 µM; in the test on KM12 colon it was 49.8 µM; in the test with SNB-19 CNS, above 100 µM; with HCT-15 colon, 41.5 µM; with NCI/ADR-RES ovarian, 43.1 µM. Also, the TGI in the test on SN12C renal was found to be 26 µM; in the test on NCI-H460 lung, 11.7 µM; with HOP-92 NSCLC, 10 µM; with SK-OV-3 ovarian, 19.9 µM.
Turning to `COC(=O)/C=C/c1cc(OC(C)=O)c2c(c1)C(C(=O)OC)C(c1ccc(OC(C)=O)c(OC(C)=O)c1)O2` (stereo not given), the GI50 was 0.0273 µM in the test on HL-60(TB) leukemia; 3.43 µM in the test on COLO 205 colon; 0.334 µM in the test on KM12 colon; 0.131 µM in the test on SNB-19 CNS; 0.0445 µM with HCT-15 colon; 0.098 µM with NCI/ADR-RES ovarian. Moreover, the GI50 in the test on SN12C renal is 0.253 µM; with NCI-H460 lung it was 1.03 µM; with HOP-92 NSCLC, 0.35 µM; in the test on SK-OV-3 ovarian it was 2.46 µM. The TGI with HL-60(TB) leukemia is 0.114 µM; with COLO 205 colon it was above 50.6 µM; in the test with KM12 colon, 32.1 µM; in the test on SNB-19 CNS, above 100 µM; with HCT-15 colon, above 100 µM; with NCI/ADR-RES ovarian, above 100 µM. Besides, the TGI in the test on SN12C renal was above 42.5 µM; with NCI-H460 lung it was 13.6 µM; in the test with HOP-92 NSCLC it was 24.8 µM; in the test with SK-OV-3 ovarian, above 73.9 µM.
With `COc1ccc(CNc2c3ccccc3nc3ccccc23)cc1F`, the GI50 is 3.37 µM in the test with HL-60(TB) leukemia; 2.01 µM in the test on COLO 205 colon; 3.93 µM with KM12 colon; 3.41 µM with SNB-19 CNS; 2.45 µM in the test on HCT-15 colon; 2.58 µM in the test on NCI/ADR-RES ovarian. Besides, the GI50 in the test with SN12C renal was 2.93 µM; in the test with NCI-H460 lung, 3.15 µM; in the test with HOP-92 NSCLC it was 1.96 µM; with SK-OV-3 ovarian it was 3.66 µM. The TGI in the test on HL-60(TB) leukemia came out at 10.4 µM; in the test with COLO 205 colon it was 5.64 µM; in the test on KM12 colon it was 15.1 µM; in the test with SNB-19 CNS it was 14.7 µM; in the test with HCT-15 colon, 7.8 µM; with NCI/ADR-RES ovarian, 10.3 µM. The TGI in the test with SN12C renal came out at 11.9 µM; in the test with NCI-H460 lung, 10.4 µM; in the test on HOP-92 NSCLC it was 7.61 µM; with SK-OV-3 ovarian, 16.3 µM.
In the case of `NNc1ncnc2nc[nH]c12`, the GI50 with HL-60(TB) leukemia was 3.53 µM; in the test with COLO 205 colon, 2.56 µM; in the test with KM12 colon it was 3.56 µM; in the test on SNB-19 CNS, 28.7 µM; in the test with HCT-15 colon it was 4.58 µM; in the test with NCI/ADR-RES ovarian, 3.37 µM. Besides, the GI50 in the test on SN12C renal was 7.33 µM; with NCI-H460 lung, 5.58 µM; in the test with HOP-92 NSCLC it was 4 µM; in the test with SK-OV-3 ovarian, 2.63 µM. The TGI was 21.5 µM in the test on HL-60(TB) leukemia; 18.7 µM in the test with COLO 205 colon; 44.5 µM with KM12 colon; above 100 µM in the test with SNB-19 CNS; above 100 µM in the test on HCT-15 colon; above 100 µM in the test on NCI/ADR-RES ovarian. The TGI was above 100 µM in the test on SN12C renal, 51.6 µM with NCI-H460 lung, 55.4 µM with HOP-92 NSCLC and 28.4 µM in the test on SK-OV-3 ovarian.
